Source: patent US20240156796A1, “PHARMACEUTICAL COMPOSITION FOR TREATMENT OR PREVENTION OF STRESS-RELATED DISORDERS” (TOKYO UNIVERSITY OF SCIENCE FOUNDATION, priority 2021, published 2024)

Experiments:
κ-opioid receptor [1] = molecular target: T1, κ-opioid receptor (Homo sapiens, UniProt P41145); test: Opioid receptor function test (agonist activity), Lance Ultra cAMP kit, CHO cells expressing human κ-opioid receptor; assay type: cell-based; conditions: maximum response not reached, response rate at maximum concentration (10 μM), relative to U-69593, read-out: κ-receptor Emax (*response rate at the maximum concentration, reference value)
T1 construct: host or cells: CHO cells
Experimental: The functional activity of the compounds provided by the present invention relative to μ-, δ- and κ-opioid receptors was investigated.
(§1) Method: Using a Lance Ultra cAMP kit (manufactured by PerkinElmer, Inc.), the investigation was conducted in accordance with the prescribed method. In the evaluations of agonist activity, CHO cells expressing each of the human opioid receptors (δ, μ and κ: accession numbers and catalog numbers listed below) and each test compound were reacted for 30 minutes in an assay buffer (1×HBSS, 1 M HEPES, pH 7.4, 250 mM IBMX (isobutylmethylxanthine), 7.5% BSA) in the presence of 10 μM forskolin. Subsequently, the cAMP detection reagent included in the kit was added, and after 1 hour, a time-resolved fluorescence measurement was performed using an EnVision plate reader (manufactured by PerkinElmer, Inc.). […] The Emax value was calculated as the ratio of the maximum response of the test compound relative to a value of 100% for the maximum response of each control drug.
SNC80: (+)-4-[(aR)-α-((2S,5R)-4-allyl-2,5-dimethyl-1-piperazinyl)-3-methoxybenzyl]-N,N-diethylbenzamide DAMGO: [D-Ala^2,N-MePhe^4,Gly-ol]enkephalin U-69593: (+)-(5α,7α,8β)-N-methyl-N-[7-(1-pyrrolidinyl)-1-oxaspiro[4.5]dec-8-yl]benzeneacetamide

μ-opioid receptor = molecular target: T2, μ-opioid receptor (Homo sapiens, UniProt P35372); test: Opioid receptor function test (antagonist activity) against 30 nM DAMGO; assay type: cell-based; conditions: antagonist activity vs 30 nM DAMGO
T2 construct: host or cells: CHO cells
Experimental: as §1
(§2) Evaluations of antagonist activity relative to the μ- and κ-opioid receptors were conducted using the same method as (1) above. A fixed concentration of each control drug (μ: 30 nM DAMGO, κ: 100 nM U-69593), the test compound and CHO cells expressing each of the human opioid receptors were reacted for 30 minutes in an assay buffer in the presence of 10 μM forskolin. The test compounds were evaluated in a concentration range from 10^−12 to 10^−5 M, and subsequent operations were conducted in the same manner as the agonist activity evaluations. A dose-response curve was determined for each test compound using a value of 100% for the response of each control drug in the absence of the test compound, and the concentration that inhibited 50% of the control drug response (namely, the IC50 value) was calculated.

κ-opioid receptor [2] = molecular target: T1, κ-opioid receptor; test: Opioid receptor function test (antagonist activity) against 100 nM U-69593; assay type: cell-based; conditions: antagonist activity vs 100 nM U-69593
Experimental: as §1, §2

mouse [3] = test: Mouse contextual fear conditioning test (effect on extinction learning of fear memories); assay type: in vivo; conditions: 5, 10, 20 mg/kg p.o. two hours before second day test; second and third days; test time 6 minutes; vs solvent group (FIG. 1)
Experimental: The effect of the compound of Example 7 on extinction learning of fear memories was investigated in a mouse contextual fear conditioning test. The test was conducted in accordance with the method described in Non-Patent Document 4. Administration of the compound of Example 7 (5, 10, 20 mg/kg p.o.) or a solvent was conducted two hours prior to placing the mouse in the experimental chamber on the second day.

mouse [4] = test: Mouse contextual fear conditioning test (effect on reconsolidation of fear memories), p.o. before second day test; assay type: in vivo; conditions: 20 mg/kg p.o. two hours before second day test; second and third days; test time 2 minutes; vs solvent group (FIG. 2)
Experimental: <Mouse Contextual Fear Conditioning Test (Effect on Reconsolidation of Fear Memories)> Using the same contextual fear conditioning test as Example 41, the effect on the reconsolidation of fear memories was investigated. The test was conducted in accordance with the method described in Non-Patent Document 4. Administration of the compound of Example 7 (20 mg/kg p.o.) or a solvent was conducted two hours prior to placing the mouse in the experimental chamber on the second day. In this test, the test time on the second and third days was set to 2 minutes.

mouse [5] = test: Mouse contextual fear conditioning test (effect on reconsolidation of fear memories), s.c. immediately after second day test; assay type: in vivo; conditions: 1 mg/kg, 3 mg/kg s.c. immediately after second day test; third day; vs solvent group (FIG. 3)
[6] = animal model, Non-Patent Documents 4 and 5; cited from earlier work

T2 sequence (P35372 whole entry): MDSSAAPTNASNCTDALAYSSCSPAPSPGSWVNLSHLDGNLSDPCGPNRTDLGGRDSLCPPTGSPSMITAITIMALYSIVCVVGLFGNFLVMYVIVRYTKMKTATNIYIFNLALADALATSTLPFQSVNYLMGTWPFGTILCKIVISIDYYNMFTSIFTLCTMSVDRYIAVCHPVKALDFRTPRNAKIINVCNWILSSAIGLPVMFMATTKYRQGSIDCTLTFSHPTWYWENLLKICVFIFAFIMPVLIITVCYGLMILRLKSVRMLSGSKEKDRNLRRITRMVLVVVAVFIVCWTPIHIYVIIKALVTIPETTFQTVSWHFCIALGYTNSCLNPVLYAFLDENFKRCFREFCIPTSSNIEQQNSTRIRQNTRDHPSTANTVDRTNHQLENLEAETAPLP
T1 sequence (P41145 whole entry): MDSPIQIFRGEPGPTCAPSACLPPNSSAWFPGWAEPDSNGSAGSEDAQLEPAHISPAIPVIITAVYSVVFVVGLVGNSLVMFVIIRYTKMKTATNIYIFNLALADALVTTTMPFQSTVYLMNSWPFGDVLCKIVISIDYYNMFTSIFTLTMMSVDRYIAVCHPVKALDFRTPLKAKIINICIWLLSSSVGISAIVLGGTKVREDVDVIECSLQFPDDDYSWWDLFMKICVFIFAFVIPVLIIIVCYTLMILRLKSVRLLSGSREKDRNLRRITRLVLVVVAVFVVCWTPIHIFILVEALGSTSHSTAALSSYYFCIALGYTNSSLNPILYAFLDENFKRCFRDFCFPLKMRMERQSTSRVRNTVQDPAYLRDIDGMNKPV

O=C(c1cc(=O)cc[nH]1)N1C[C@H]2C[C@@]34CC[C@@H]1[C@@H]2[C@@]31CCN(CC2CC2)[C@@H]4Cc2ccc(O)cc21 [Example 14, 2-((1S,3aR,5aS,6R,11bR,11cS)-14-(cyclopropylmethyl)-10-hydroxy-2,3,3a,4,5,6,7,11c-octahydro-1H-6,11b-(epiminoethano)-1,5a-methanonaphtho[1,2-e]indole-3-carbonyl)pyridin-4(1H)-one]
Emax at 10 µM (κ-opioid receptor [1]): 5.7%

Cn1cc(C(=O)N2C[C@H]3C[C@@]45CC[C@@H]2[C@@H]3[C@@]42CCN(CC3CC3)[C@@H]5Cc3ccc(O)cc32)ccc1=O [Example 9, 5-((1S,3aR,5aS,6R,11bR,11cS)-14-(cyclopropylmethyl)-10-hydroxy-2,3,3a,4,5,6,7,11c-octahydro-1H-6,11b-(epiminoethano)-1,5a-methanonaphtho[1,2-e]indole-3-carbonyl)-1-methylpyridin-2(1H)-one]
IC50 (μ-opioid receptor): 2.4 nM | IC50 (κ-opioid receptor [2]): 3.3 nM

CCn1cc(C(=O)N2C[C@H]3C[C@@]45CC[C@@H]2[C@@H]3[C@@]42CCN(CC3CC3)[C@@H]5Cc3ccc(O)cc32)ccc1=O [Example 28, 5-((1S,3aR,5aS,6R,11bR,11cS)-14-(cyclopropylmethyl)-10-hydroxy-2,3,3a,4,5,6,7,11c-octahydro-1H-6,11b-(epiminoethano)-1,5a-methanonaphtho[1,2-e]indole-3-carbonyl)-1-ethylpyridin-2(1H)-one]
IC50 (μ-opioid receptor): 2.1 nM | IC50 (κ-opioid receptor [2]): 4 nM

O=C(c1cccc(=O)[nH]1)N1C[C@H]2C[C@@]34CC[C@@H]1[C@@H]2[C@@]31CCN(CC2CC2)[C@@H]4Cc2ccc(O)cc21 [Example 7, 6-((1S,3aR,5aS,6R,11bR,11cS)-14-(cyclopropylmethyl)-10-hydroxy-2,3,3a,4,5,6,7,11c-octahydro-1H-6,11b-(epiminoethano)-1,5a-methanonaphtho[1,2-e]indole-3-carbonyl)pyridin-2(1H)-one]
IC50 (μ-opioid receptor): 1.3 nM | IC50 (κ-opioid receptor [2]): 4.6 nM | fear response (freezing behavior, % of test time) (mouse [3]): significant reduction in fear response | fear response (freezing behavior) (mouse [4]): significant reduction in fear response | fear response (freezing behavior) (mouse [5]): significant reduction in fear response

C=CCN1C[C@H](C)N([C@H](c2ccc(C(=O)N(CC)CC)cc2)c2cccc(OC)c2)C[C@H]1C [SNC80, (+)-4-[(aR)-α-((2S,5R)-4-allyl-2,5-dimethyl-1-piperazinyl)-3-methoxybenzyl]-N,N-diethylbenzamide]
anxiolytic effect through the extinction of anxiety or fear memories [6]: exhibited an anxiolytic effect

O=C(c1ccc[nH]c1=O)N1C[C@H]2C[C@@]34CC[C@@H]1[C@@H]2[C@@]31CCN(CC2CC2)[C@@H]4Cc2ccc(O)cc21 [Example 3, 3-((1S,3aR,5aS,6R,11bR,11cS)-14-(cyclopropylmethyl)-10-hydroxy-2,3,3a,4,5,6,7,11c-octahydro-1H-6,11b-(epiminoethano)-1,5a-methanonaphtho[1,2-e]indole-3-carbonyl)pyridin-2(1H)-one]
IC50 (μ-opioid receptor): 4.6 nM | IC50 (κ-opioid receptor [2]): 11.1 nM

O=C(c1cccc[n+]1[O-])N1C[C@H]2C[C@@]34CC[C@@H]1[C@@H]2[C@@]31CCN(CC2CC2)[C@@H]4Cc2ccc(O)cc21 [Example 1, 2-((1S,3aR,5aS,6R,11bR,11cS)-14-(cyclopropylmethyl)-10-hydroxy-2,3,3a,4,5,6,7,11c-octahydro-1H-6,11b-(epiminoethano)-1,5a-methanonaphtho[1,2-e]indole-3-carbonyl)pyridine 1-oxide]
IC50 (μ-opioid receptor): 4.1 nM | IC50 (κ-opioid receptor [2]): 3.3 nM

Cn1c(C(=O)N2C[C@H]3C[C@@]45CC[C@@H]2[C@@H]3[C@@]42CCN(CC3CC3)[C@@H]5Cc3ccc(O)cc32)cccc1=O [Example 10, 6-((1S,3aR,5aS,6R,11bR,11cS)-14-(cyclopropylmethyl)-10-hydroxy-2,3,3a,4,5,6,7,11c-octahydro-1H-6,11b-(epiminoethano)-1,5a-methanonaphtho[1,2-e]indole-3-carbonyl)-1-methylpyridin-2(1H)-one]
IC50 (μ-opioid receptor): 5.7 nM | IC50 (κ-opioid receptor [2]): 3.4 nM
